Earlier results, collected in paper PMC7385171, “Molecular engineering of safe and efficacious oral basal insulin” (Nature Communications, 2020).

Settings: man, 8-week study; oral for the analogue, SC for insulin glargine

## insulin glargine
  coefficient of variation of fasting plasma glucose: 17.5%
